From US20250171437A1 (Agios Pharmaceuticals,Inc., priority 2022, published 2025)

Biological target: T1, human PAH with the R408W mutation (A375 R408W cells) (Homo sapiens, UniProt P00439, R408W)
T1 construct: expressed in transfected cells
T1 sequence (P00439 1-452 R408W): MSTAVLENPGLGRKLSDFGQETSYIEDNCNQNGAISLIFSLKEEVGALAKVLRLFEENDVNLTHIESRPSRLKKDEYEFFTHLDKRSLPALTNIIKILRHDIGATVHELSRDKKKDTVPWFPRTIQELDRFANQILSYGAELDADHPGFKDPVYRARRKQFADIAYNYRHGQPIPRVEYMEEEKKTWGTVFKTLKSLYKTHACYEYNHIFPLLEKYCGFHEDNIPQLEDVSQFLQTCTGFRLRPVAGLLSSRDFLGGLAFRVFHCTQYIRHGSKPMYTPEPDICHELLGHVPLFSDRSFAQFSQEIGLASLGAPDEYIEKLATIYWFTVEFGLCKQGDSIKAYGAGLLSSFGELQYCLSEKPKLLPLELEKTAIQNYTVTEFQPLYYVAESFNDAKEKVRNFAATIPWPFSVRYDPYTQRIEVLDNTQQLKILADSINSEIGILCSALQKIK
Test: Cell Based Phenylalanine Flux Assay
Details: 24 hrs with compound, then 20 μM sepiapterin and 800 μM 13C9,15N-Phenylalanine for 4 hours, 13C-Tyrosine by LC-MS, average where tested multiple times
Method in brief: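 AC50 is derived from LC-MS of 13C-tyrosine in the media after a 4 h pulse of 800 μM 13C9,15N-phenylalanine plus 20 μM sepiapterin. The A375 R408W PAH cells had received duplicate 10-point, 2-fold compound dilutions (0.5% DMSO) for 24 h beforehand.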

[1] = A375 cells expressing R408W PAH

Row | SMILES | AC50 (A375 R408W cells) [nM] | AC50 [1] [nM]
1 | O=C(c1nnc(-c2ncccc2F)o1)N1CCc2[nH]cnc2[C@@H]1c1nc2ccccc2o1 [Example 834, (R)-(4-(benzo[d]oxazol-2-yl)-6,7-dihydro-1H-imidazo[4,5-c]pyridin-5(4H)-yl)(5-(3-fluoropyridin-2-yl)-1,3,4-oxadiazol-2-yl)methanone] | 500 to 1000 | –
2 | CC(C)(O)c1ncc(C(=O)N2CCc3[nH]cnc3[C@@H]2c2nc3cccc(F)c3o2)o1 [Example 714, (R)-(4-(7-fluorobenzo[d]oxazol-2-yl)-6,7-dihydro-1H-imidazo[4,5-c]pyridin-5(4H)-yl)(2-(2-hydroxypropan-2-yl)oxazol-5-yl)methanone] | 1000 to 5000 | –
3 | Cc1cccc2oc([C@H]3c4nc[nH]c4CCN3C(=O)c3nc(C(F)F)nn3C)nc12 [Example 448, (R)-(3-(difluoromethyl)-1-methyl-1H-1,2,4-triazol-5-yl)(4-(4-methylbenzo[d]oxazol-2-yl)-6,7-dihydro-1H-imidazo[4,5-c]pyridin-5(4H)-yl)methanone] | 1000 to 5000 | –
4 | CC(C)(C)c1ncc(C(=O)N2CCc3[nH]cnc3[C@@H]2c2nc3cc(F)ccc3o2)s1 [Example 18, (R)-(2-(tert-butyl)thiazol-5-yl)(4-(5-fluorobenzo[d]oxazol-2-yl)-6,7-dihydro-1H-imidazo[4,5-c]pyridin-5(4H)-yl)methanone] | 1000 to 5000 | –
5 | COc1ccc2oc(C3c4nc[nH]c4CCN3C(=O)c3nc(C)nn3C)nc2c1 (stereo not shown) | – | 1000 to 5000
6 | O=C(c1nnc(-c2ccccn2)o1)N1CCc2[nH]cnc2[C@H]1c1nc2cc(F)cc(F)c2o1 [Example 580, (S)-(4-(5,7-difluorobenzo[d]oxazol-2-yl)-6,7-dihydro-1H-imidazo[4,5-c]pyridin-5(4H)-yl)(5-(pyridin-2-yl)-1,3,4-oxadiazol-2-yl)methanone] | 500 to 1000 | –
7 | Cn1cc(-c2nnc(C(=O)N3CCc4[nH]cnc4[C@H]3c3nc4ccccc4o3)o2)cn1 [Example 581, (S)-(4-(benzo[d]oxazol-2-yl)-6,7-dihydro-1H-imidazo[4,5-c]pyridin-5(4H)-yl)(5-(1-methyl-1H-pyrazol-4-yl)-1,3,4-oxadiazol-2-yl)methanone] | ≤ 500 | –
8 | O=C(c1oc(-c2ccccn2)nc1C(F)(F)F)N1CCc2[nH]cnc2[C@H]1c1nc2cc(F)ccc2o1 [Example 49, (S)-(4-(5-fluorobenzo[d]oxazol-2-yl)-6,7-dihydro-1H-imidazo[4,5-c]pyridin-5(4H)-yl)(2-(pyridin-2-yl)-4-(trifluoromethyl)oxazol-5-yl)methanone] | ≤ 500 | –
9 | CC(C)(O)c1nc(C(F)F)c(C(=O)N2CCc3[nH]cnc3[C@H]2c2nc3ccc(F)c(F)c3o2)o1 [Example 297, (S)-(4-(6,7-difluorobenzo[d]oxazol-2-yl)-6,7-dihydro-1H-imidazo[4,5-c]pyridin-5(4H)-yl)(4-(difluoromethyl)-2-(2-hydroxypropan-2-yl)oxazol-5-yl)methanone] | ≤ 500 | –
10 | O=C(c1cnco1)N1CCc2[nH]cnc2C1c1nc2ccc(F)c(F)c2o1 (stereo not shown) | – | 1000 to 5000
11 | O=C(c1oc(N2CCOCC2)nc1C(F)F)N1CCc2[nH]cnc2[C@@H]1c1nc2cccc(F)c2o1 [Example 647, (R)-(4-(difluoromethyl)-2-morpholinooxazol-5-yl)(4-(7-fluorobenzo[d]oxazol-2-yl)-6,7-dihydro-1H-imidazo[4,5-c]pyridin-5(4H)-yl)methanone] | 500 to 1000 | –
12 | Cc1cccc2oc([C@H]3c4nc[nH]c4CCN3C(=O)c3cnc(C(C)(C)O)o3)nc12 [Example 512, (R)-(2-(2-hydroxypropan-2-yl)oxazol-5-yl)(4-(4-methylbenzo[d]oxazol-2-yl)-6,7-dihydro-1H-imidazo[4,5-c]pyridin-5(4H)-yl)methanone] | 1000 to 5000 | –
13 | O=C(c1nnc(-c2c[nH]nc2C(F)(F)F)o1)N1CCc2[nH]cnc2C1c1nc2cc(F)ccc2o1 (stereo not shown) | – | ≥ 5000
14 | COCc1ccc2c(C(=O)N3CCc4[nH]cnc4[C@@H]3c3nc4cccc(F)c4o3)cnn2c1 [Example 266, (R)-(4-(7-fluorobenzo[d]oxazol-2-yl)-6,7-dihydro-1H-imidazo[4,5-c]pyridin-5(4H)-yl)(6-(methoxymethyl)pyrazolo[1,5-a]pyridin-3-yl)methanone] | ≥ 5000 | –
15 | Cc1ccc2nc([C@@H]3c4nc[nH]c4CCN3C(=O)c3nnc(-c4cnn(C(F)F)c4)o3)oc2c1 [Example 681, (S)-(5-(1-(difluoromethyl)-1H-pyrazol-4-yl)-1,3,4-oxadiazol-2-yl)(4-(6-methylbenzo[d]oxazol-2-yl)-6,7-dihydro-1H-imidazo[4,5-c]pyridin-5(4H)-yl)methanone] | 500 to 1000 | –
16 | Cc1ccc2oc([C@H]3c4nc[nH]c4CCN3C(=O)c3ccnn3C(F)F)nc2c1 [Example 314, (R)-(1-(difluoromethyl)-1H-pyrazol-5-yl)(4-(5-methylbenzo[d]oxazol-2-yl)-6,7-dihydro-1H-imidazo[4,5-c]pyridin-5(4H)-yl)methanone] | 500 to 1000 | –
17 | O=C(c1ocnc1C(F)F)N1CCc2[nH]cnc2[C@@H]1c1nc2cccc(F)c2o1 [Example 900, (R)-(4-(difluoromethyl)oxazol-5-yl)(4-deuterium-4-(7-fluorobenzo[d]oxazol-2-yl)-6,7-dihydro-1H-imidazo[4,5-c]pyridin-5(4H)-yl)methanone] | 500 to 1000 | –
18 | CN(C)CCCOc1ccc2c(C(=O)N3CCc4[nH]cnc4C3c3nc4cc(F)ccc4o3)cnn2c1 (stereo not shown) | – | 1000 to 5000
19 | O=C(c1ccnn1-c1ccccn1)N1CCc2[nH]cnc2C1c1nc2cc(F)ccc2o1 (stereo not shown) | – | 1000 to 5000
20 | Cc1ccc2c(C(=O)N3CCc4[nH]cnc4[C@@H]3c3nc4cccc(F)c4o3)cnn2c1 [Example 324, (R)-(4-(7-fluorobenzo[d]oxazol-2-yl)-6,7-dihydro-1H-imidazo[4,5-c]pyridin-5(4H)-yl)(6-methylpyrazolo[1,5-a]pyridin-3-yl)methanone] | 1000 to 5000 | –
21 | O=C(c1nnc(CCN2CC(F)C2)o1)N1CCc2[nH]cnc2C1c1nc2cc(F)ccc2o1 (stereo not shown) | – | ≥ 5000
22 | CC(O)c1nc(Br)c(C(=O)N2CCc3[nH]cnc3[C@H]2c2nc3cc(F)ccc3o2)o1 (single isomer, unassigned) [Example 225] | 1000 to 5000 | –
23 | Cn1nccc1C(=O)N1Cc2[nH]cnc2[C@H]1c1nc2ccccc2o1 [Example 924, (S)-(4-(benzo[d]oxazol-2-yl)-4,6-dihydropyrrolo[3,4-d]imidazol-5(1H)-yl)(1-methyl-1H-pyrazol-5-yl)methanone] | 1000 to 5000 | –
24 | CC(C)(O)c1nc(C(F)F)c(C(=O)N2CCc3[nH]cnc3[C@H]2c2nc3c(F)cc(F)cc3o2)o1 [Example 299, (S)-(4-(4,6-difluorobenzo[d]oxazol-2-yl)-6,7-dihydro-1H-imidazo[4,5-c]pyridin-5(4H)-yl)(4-(difluoromethyl)-2-(2-hydroxypropan-2-yl)oxazol-5-yl)methanone] | ≤ 500 | –
25 | O=C([C@H]1CC1(F)F)N1CCc2[nH]cnc2[C@H]1c1nc2cc(F)ccc2o1 (single isomer, unassigned) | – | 1000 to 5000
26 | O=C(c1cnn2cc(CN3CCC(F)(F)C3)ccc12)N1CCc2[nH]cnc2[C@H]1c1nc2cc(F)ccc2o1 (single isomer, unassigned) | – | 1000 to 5000
27 | Cc1ccc2oc([C@@H]3c4nc[nH]c4CCN3C(=O)c3nnc(-c4cn[nH]c4)o3)nc2c1 [Example 491, (S)-(5-(1H-pyrazol-4-yl)-1,3,4-oxadiazol-2-yl)(4-(5-methylbenzo[d]oxazol-2-yl)-6,7-dihydro-1H-imidazo[4,5-c]pyridin-5(4H)-yl)methanone] | 500 to 1000 | –
28 | O=C(c1ccn[nH]1)N1CCc2[nH]cnc2C1c1nc2cc(F)ccc2o1 (stereo not shown) | – | ≥ 5000
